The structures appear in SMILES notation.

Data set [1] is described as follows: Perborate stabilization in the presence of Cu ions (peroxide remaining after hot storage, iodine/starch titration). Particulars: pH 10.1. The protocol:
(§1) The hydrogen peroxide responsible for the bleaching action in sodium perborate based laundry detergents is decomposed catalytically by transition metal ions such as Mn^II and Cu^II. This degradation can be prevented by complexing the metal ions.
(§2) The peroxide stabilizing effect of stabilizers in accordance with the invention was tested by measuring the peroxide present before and after storage in a hot aqueous solution which contains copper or manganese ions.
(§3) A solution of 0.2 g (2×10^-3 mols) sodium perborate monohydrate; 10.0 ml of hardness standard (3:1 CaCl2 :MgCl2, 1×10^-6 mols total); 3.0 ml of metal standard (5.4×10^-8 mol Mn^II or 4.7×10^-8 mols Cu^II); and 2.0 ml stabilizer solution (4.2×10^-7 mols stabilizer) was diluted to 100 ml with distilled water. The pH was adjusted to 10.1 and the solution was stirred at 70° C. for 20 minutes. Ten ml aliquots of the solution were tested after 10 minutes by first neutralizing the solution with sulfuric acid and then titrating with iodine and starch.
(§4) The percentage of peroxide remaining after storage was determined using a starch/iodine titration procedure.

Data set [2] in a line: Perborate stabilization in the presence of Mn ions (peroxide remaining after hot storage, iodine/starch titration). Particulars: pH 10.1. The protocol:
as §1, §2, §3, §4

Data set [3] can be described thus: Sodium perborate stabilization in wash liquors (bleaching of grape juice stained swatches). Particulars: 5.2×10^-5 mol/l stabilizer, sodium perborate-monohydrate 0.8 g/l, 50° C., 15 minutes, pH 10.3; for ΔE (brightness of the swatches): Fe^III, Cu^II, Mn^II; for % Stain Removal: in duplicate. The protocol: The efficiency of the bleaching action of a laundry detergent containing the stabilizers of the invention was measured by washing white poly-cotton fabric swatches previously stained with grape juice. The test was carried out using the following detergent formulation: […]
Sodium Dodecyl Benzene Sulfonate
Grape juice stained, poly-cotton fabric swatches purchased from Scientific Services, Oakland, N.J., were washed in a Tergitometer at 50° C. for 15 minutes in a wash solution containing sodium perborate-monohydrate 0.8 g/l; 4.0 g/l of the zeolite-based detergent as described above; 100 ppm Hardness (3:1 Ca:Mg); 2 ppm Fe^III; 1 ppm Cu^II; and 1 ppm Mn^II (from AA standards); and 5.2×10^-5 mol/l stabilizer. The pH of the wash solution was 10.3. The swatches were then rinsed for 5 minutes in 25° C. water and air dried.
The efficiency of the bleaching action was determined by measuring the brightness (ΔE) of the swatches and the percentage of soil removed from the swatches.
ΔE was calculated in accordance with ASTM E 308-66(81) standards, using the following formula: [formula] wherein L=Lightness 0 black, 100 white a=Redness if +, Greenness if -, Gray is 0 b=Yellow if +, Blue if -, Gray is 0
Δ measurements are before and after washing
Percent stain removal was calculated in duplicate in accordance with ASTM D3050-75 standards, using the following formula: [formula] where D=reflectance by detergent head with green filter (brightness).

For data set [4] the following is noted: conventional tests; cited from earlier work.
The mark [5] stands for this setting: 4.7×10^-8 mols Cu^II, 4.2×10^-7 mols stabilizer in 100 ml, 70° C.
Where [6] appears, read: 5.4×10^-8 mol Mn^II, 4.2×10^-7 mols stabilizer in 100 ml, 70° C.

On to `O=C(O)CNC(CC(=O)O)C(=O)O` (stereo not drawn) [AspMA, Aspartic acidN-monoacetic acid], for which the “Stability in Presence of Cu^+2 Ions, % Remaining” value in data set [1] was determined as 0.0%. The “Stability in Presence of Mn^2 Ions, % Remaining” value in data set [2] stood at 21.5%. Besides, in data set [3], the “ΔE (brightness of the swatches)” value is recorded as 87.6 and the “% Stain Removal” value was 84.4%.
Take `O=C(O)CC(C(=O)O)N(CC(=O)O)CC(=O)O` (stereo not drawn) [AspDA, Aspartic acidN,N-diacetic acid]: in data set [1] (setting [5]), the “Stability in Presence of Cu^+2 Ions, % Remaining” value was found to be 28.6%. Moreover, the “Stability in Presence of Mn^2 Ions, % Remaining” value in data set [2] (setting [6]) was determined as 25.6%. In data set [3], the “ΔE (brightness of the swatches)” value is listed as 93.9 and the “% Stain Removal” value is 83.7%.
With `O=C(O)CCN(CC(=O)O)CC(=O)O` [BADA], the “Stability in Presence of Cu^+2 Ions, % Remaining” value in data set [1] (setting [5]) is 50.4%. Moreover, the “Stability in Presence of Mn^2 Ions, % Remaining” value in data set [2] (setting [6]) is given as 45.0%. Moreover, in data set [3], the “ΔE (brightness of the swatches)” value was 98.0 and the “% Stain Removal” value was found to be 83.3%.
`O=C(O)CC(NC(CC(=O)O)C(=O)O)C(=O)O` (stereo not drawn) [ISA, Iminodisuccinic acid]: the “Stability in Presence of Cu^+2 Ions, % Remaining” value in data set [1] (setting [5]) amounted to 79.0%. For the same compound, in data set [2] (setting [6]), the “Stability in Presence of Mn^2 Ions, % Remaining” value came out at 13.6%. Further, in data set [3], the “ΔE (brightness of the swatches)” value turned out to be 92.7 and the “% Stain Removal” value is reported as 81.4%.
On to `O=C(O)CN(CCN(CC(=O)O)CC(=O)O)CC(=O)O` [EDTA, Ethylenediaminetetraacetic acid, reference compound], for which the “Stability in Presence of Cu^+2 Ions, % Remaining” value in data set [1] (setting [5]) stood at 82.8%. In addition, the “Stability in Presence of Mn^2 Ions, % Remaining” value in data set [2] (setting [6]) is listed as 87.5%. For the same compound, the biodegradability result in data set [4] was “insufficiently biodegradable”. In addition, in data set [3], the “ΔE (brightness of the swatches)” value is on record as 86.2 and the “% Stain Removal” value is reported as 79.7%.
On to `O=C(O)CN(CC(=O)O)CC(O)CN(CC(=O)O)CC(=O)O` [HPDTA, hydroxypropylenediaminetetraacetic acid], for which the biodegradability result in data set [4] was “insufficiently biodegradable”.
`O=C(O)CSC(CC(=O)O)C(=O)O` (stereo not drawn) [CMMS, Carboxymethylmercaptosuccinic acid]: the “Stability in Presence of Cu^+2 Ions, % Remaining” value in data set [1] (setting [5]) came out at 31.3%. Besides, in data set [2] (setting [6]), the “Stability in Presence of Mn^2 Ions, % Remaining” value was determined as 54.5%. Moreover, in data set [3], the “ΔE (brightness of the swatches)” value was found to be 102.3 and the “% Stain Removal” value is 84.5%.
In the case of `CC(CN(CC(=O)O)CC(=O)O)N(CC(=O)O)CC(=O)O` (stereo not drawn) [PDTA, propylenediaminetetraacetic acid], the biodegradability result in data set [4] is on record as “insufficiently biodegradable”.

The values above are taken from US5362412A, “Biodegradable bleach stabilizers for detergents” (priority 1991, dated 1994).
